In PubChem BioAssay AID280 (DTP/NCI, 2004):
Where “and” joins values, the source holds several entries; their conditions need not be identical. Identical values can stand only once. Toxic doses and inconclusive results are not listed.

Tested on: nude mice, LOX melanoma ip, survival T/C
Assay: NCI In Vivo Anticancer Drug Screen. Data for tumor model Human Amelanotic Melanoma (LOX) (intraperitoneal) in NU/NU BALB/C (nude) mice
Settings: endpoint: median survival time, higher = longer survival
Description: The antitumor activity of compounds was measured in mice bearing transplantable tumors. Survival or tumor size were measured and the results are expressed as the measurement made in the treated group (T) divided by the measurement made in the vehicle treated control group (C). The tumor model used in this assay is Human Amelanotic Melanoma (LOX) (intraperitoneal) in NU/NU BALB/C (nude) mice

[1] = dose: 16.0 mg/kg/injection, schedule: Q04DX003 (ip), vehicle: water
[2] = dose: 32.0 mg/kg/injection, schedule: Q04DX003 (ip), vehicle: water
[3] = dose: 12.5 mg/kg/injection, schedule: Q04DX003 (ip), vehicle: saline with Tween-80
[4] = dose: 25.0 mg/kg/injection, schedule: Q04DX003 (ip), vehicle: saline with Tween-80
[5] = dose: 50.0 mg/kg/injection, schedule: Q04DX003 (ip), vehicle: saline with Tween-80
[6] = dose: 100.0 mg/kg/injection, schedule: Q04DX003 (ip), vehicle: saline with Tween-80
[7] = dose: 75.0 mg/kg/injection, schedule: Q04DX003 (ip), vehicle: saline with Tween-80
[8] = dose: 150.0 mg/kg/injection, schedule: Q04DX003 (ip), vehicle: saline with Tween-80

COc1ccc2[nH]c3ccc4cc[n+](CCN5CCC(C6CCN(CC[n+]7ccc8ccc9[nH]c%10ccc(OC)cc%10c9c8c7)CC6)CC5)cc4c3c2c1
T/C (dose: 4.0 mg/kg/injection, schedule: Q04DX003 (ip), vehicle: water): 153 % of control
T/C (dose: 13.7 mg/kg/injection, schedule: Q04DX003 (ip), vehicle: water): 156 % of control
T/C [1]: 176 % of control
T/C (dose: 22.8 mg/kg/injection, schedule: Q04DX003 (ip), vehicle: water): 176 % of control
T/C (dose: 23.04 mg/kg/injection, schedule: Q04DX003 (ip), vehicle: water): 203 % of control
T/C [2]: 187 % of control
T/C (dose: 38.0 mg/kg/injection, schedule: Q04DX003 (ip), vehicle: water): 207 % of control
T/C (dose: 38.4 mg/kg/injection, schedule: Q04DX003 (ip), vehicle: water): 223 % of control
T/C (dose: 64.0 mg/kg/injection, schedule: Q04DX003 (ip), vehicle: water): 192 % of control

NC(N)=NS(=O)(=O)c1ccc(NCc2c3ccccc3nc3ccccc23)cc1
T/C (dose: 600.0 mg/kg/injection, schedule: Q04DX003 (ip), vehicle: Klucel (hydroxypropylcellulose) (HPC)): 166 % of control
T/C (dose: 1200.0 mg/kg/injection, schedule: Q04DX003 (ip), vehicle: Klucel (hydroxypropylcellulose) (HPC)): 155 % of control

CC(=O)NO
T/C (dose: 75.0 mg/kg/injection, schedule: Q04DX003 (ip), vehicle: water): 101 % of control
T/C (dose: 150.0 mg/kg/injection, schedule: Q04DX003 (ip), vehicle: water): 101 % of control
T/C (dose: 300.0 mg/kg/injection, schedule: Q04DX003 (ip), vehicle: water): 103 % of control
T/C (dose: 600.0 mg/kg/injection, schedule: Q04DX003 (ip), vehicle: water): 103 % of control
T/C (dose: 1200.0 mg/kg/injection, schedule: Q04DX003 (ip), vehicle: water): 92 % of control

COc1cc2c(c(OC)c1OC)-c1ccc(OC)c(=O)cc1[C@@H](NC(C)=O)CC2
T/C (dose: 0.13 mg/kg/injection, schedule: Q04DX003 (ip), vehicle: saline): 162 % of control
T/C (dose: 0.25 mg/kg/injection, schedule: Q04DX003 (ip), vehicle: saline): 150 % of control and 179 % of control and 180 % of control
T/C (dose: 0.5 mg/kg/injection, schedule: Q04DX003 (ip), vehicle: saline): 171 % of control and 197 % of control and 220 % of control
T/C (dose: 1.0 mg/kg/injection, schedule: Q04DX003 (ip), vehicle: saline): 229 % of control and 232 % of control and 280 % of control
T/C (dose: 2.0 mg/kg/injection, schedule: Q04DX003 (ip), vehicle: saline): 189 % of control and 222 % of control and 262 % of control
T/C (dose: 4.0 mg/kg/injection, schedule: Q04DX003 (ip), vehicle: saline): 268 % of control

C/C(=N\NC(=S)N1CC2CCC(CC2)C1)c1nccs1
T/C [3]: 101 % of control
T/C [4]: 107 % of control
T/C [5]: 118 % of control
T/C [6]: 118 % of control

Cn1c2ccccc2c2ccc3c(c21)C(=O)C=CC3=O
T/C (dose: 9.38 mg/kg/injection, schedule: Q04DX003 (ip), vehicle: saline with Tween-80): 90 % of control
T/C (dose: 18.75 mg/kg/injection, schedule: Q04DX003 (ip), vehicle: saline with Tween-80): 94 % of control
T/C (dose: 37.5 mg/kg/injection, schedule: Q04DX003 (ip), vehicle: saline with Tween-80): 88 % of control
T/C [7]: 112 % of control
T/C [8]: 100 % of control

COc1cc2c(c3c1c(=O)c1ccccc1n3C)C=CC(C)(C)O2
T/C (dose: 12.5 mg/kg/injection, schedule: Q04DX003 (ip), vehicle: Klucel (hydroxypropylcellulose) (HPC)): 104 % of control
T/C (dose: 25.0 mg/kg/injection, schedule: Q04DX003 (ip), vehicle: Klucel (hydroxypropylcellulose) (HPC)): 107 % of control and 97 % of control
T/C (dose: 50.0 mg/kg/injection, schedule: Q04DX003 (ip), vehicle: Klucel (hydroxypropylcellulose) (HPC)): 107 % of control
T/C (dose: 100.0 mg/kg/injection, schedule: Q04DX003 (ip), vehicle: Klucel (hydroxypropylcellulose) (HPC)): 87 % of control

CN(Cc1cnc2nc(N)nc(N)c2n1)c1ccc(C(=O)N[C@@H](CCC(=O)O)C(=O)O)cc1
T/C (dose: 0.38 mg/kg/injection, schedule: Q01DX015 (ip), vehicle: sodium bicarbonate): 90 % of control
T/C (dose: 0.75 mg/kg/injection, schedule: Q01DX005 (ip), vehicle: sodium bicarbonate): 90 % of control
T/C (dose: 1.5 mg/kg/injection, schedule: Q01DX005 (ip), vehicle: sodium bicarbonate): 113 % of control
T/C (dose: 1.5 mg/kg/injection, schedule: Q01DX015 (ip), vehicle: sodium bicarbonate): 95 % of control
T/C (dose: 3.0 mg/kg/injection, schedule: Q01DX005 (ip), vehicle: sodium bicarbonate): 112 % of control
T/C (dose: 3.0 mg/kg/injection, schedule: Q01DX015 (ip), vehicle: sodium bicarbonate): 102 % of control
T/C (dose: 6.0 mg/kg/injection, schedule: Q01DX005 (ip), vehicle: sodium bicarbonate): 112 % of control
T/C (dose: 10.0 mg/kg/injection, schedule: Q04DX003 (ip), vehicle: sodium bicarbonate): 107 % of control
T/C (dose: 12.0 mg/kg/injection, schedule: Q01DX005 (ip), vehicle: sodium bicarbonate): 107 % of control
T/C (dose: 12.0 mg/kg/injection, schedule: Q04DX003 (ip), vehicle: sodium bicarbonate): 105 % of control and 112 % of control
T/C (dose: 18.0 mg/kg/injection, schedule: Q04DX003 (ip), vehicle: sodium bicarbonate): 103 % of control and 101 % of control
T/C (dose: 20.0 mg/kg/injection, schedule: Q04DX003 (ip), vehicle: sodium bicarbonate): 102 % of control
T/C (dose: 25.0 mg/kg/injection, schedule: Q01DX001 (ip), vehicle: sodium bicarbonate): 107 % of control
T/C (dose: 27.0 mg/kg/injection, schedule: Q04DX003 (ip), vehicle: sodium bicarbonate): 105 % of control and 112 % of control
T/C (dose: 40.0 mg/kg/injection, schedule: Q04DX003 (ip), vehicle: sodium bicarbonate): 113 % of control
T/C (dose: 50.0 mg/kg/injection, schedule: Q01DX001 (ip), vehicle: sodium bicarbonate): 106 % of control
T/C (dose: 100.0 mg/kg/injection, schedule: Q01DX001 (ip), vehicle: sodium bicarbonate): 103 % of control
T/C (dose: 200.0 mg/kg/injection, schedule: Q01DX001 (ip), vehicle: sodium bicarbonate): 121 % of control

COc1cc(C2CC(C)(O)Oc3cc4c(cc32)OCO4)cc(OC)c1OC (stereo not given)
T/C [5]: 109 % of control and 98 % of control
T/C [6]: 96 % of control
T/C (dose: 200.0 mg/kg/injection, schedule: Q04DX003 (ip), vehicle: saline with Tween-80): 93 % of control

CC(/C=C/C=C/C=C/C=C/C=C/C(O)=C1/C(=O)C(CCC(=O)O)N(C)C1=O)=C\C(C)C(OC1CC(O)C(O)C(C)O1)C(C)C (stereo not given)
T/C (dose: 8.3 mg/kg/injection, schedule: Q04DX003 (ip), vehicle: water): 114 % of control
T/C (dose: 13.8 mg/kg/injection, schedule: Q04DX003 (ip), vehicle: water): 114 % of control
T/C [1]: 150 % of control
T/C [2]: 168 % of control
T/C (dose: 107.0 mg/kg/injection, schedule: Q04DX003 (ip), vehicle: water): 116 % of control

O=c1cc(-c2ccccc2)[nH]c2c1CCCC2
T/C [7]: 115 % of control
T/C [8]: 115 % of control
T/C (dose: 259.0 mg/kg/injection, schedule: Q04DX003 (ip), vehicle: saline with Tween-80): 106 % of control
T/C (dose: 300.0 mg/kg/injection, schedule: Q04DX003 (ip), vehicle: saline with Tween-80): 114 % of control
T/C (dose: 432.0 mg/kg/injection, schedule: Q04DX003 (ip), vehicle: saline with Tween-80): 100 % of control
T/C (dose: 600.0 mg/kg/injection, schedule: Q04DX003 (ip), vehicle: saline with Tween-80): 124 % of control
T/C (dose: 720.0 mg/kg/injection, schedule: Q04DX003 (ip), vehicle: saline with Tween-80): 114 % of control

O=C1CN(c2ccccc2)C(=O)C1C(=O)Nc1ccc(Cl)c(Cl)c1 (stereo not given)
T/C (dose: 120.0 mg/kg/injection, schedule: Q04DX003 (ip), vehicle: saline with Tween-80): 115 % of control

COc1c2c(c(O)c3c4c(c(C)cc13)C1OC3(C(OC)OC5CC(C)(O)C(OC6CC(C)(O)C(O)C(C)O6)C(C)O5)OC1C(OC)(O4)C31CO1)C(=O)C(O)CC2OC1CC(C)(O)C(OC(C)=O)C(C)O1 (stereo not given)
T/C (dose: 12.5 micrograms/kg/injection, schedule: Q04DX003 (ip), vehicle: saline): 261 % of control
T/C (dose: 25.0 micrograms/kg/injection, schedule: Q04DX003 (ip), vehicle: saline): 181 % of control
T/C (dose: 50.0 micrograms/kg/injection, schedule: Q04DX003 (ip), vehicle: saline): 107 % of control

COC1=CCC23C(=O)C=CC(=O)C2(C1)C(=O)c1ccccc1C3=O (stereo not given)
T/C (dose: 6.25 mg/kg/injection, schedule: Q04DX003 (ip), vehicle: saline with Tween-80): 101 % of control
T/C [3]: 100 % of control
T/C [4]: 94 % of control
